Source: the NIST ThermoML archive (doi:10.1016/j.jct.2018.08.004)

Experiment: xn = mol fraction of the nth substance listed
Details: for surface tension liquid-gas: Maximal bubble pressure; for mass density: 100 kPa, Liquid, Vibrating tube method

CCCC[n+]1ccccc1.N#C[N-]C#N [1-butylpyridinium dicyanamide] + CCO
Details | mass density [kg/m3] | surface tension liquid-gas [mN/m]
288.15 K, x1 = 0.0999 | 877.29 | 25.7
288.15 K, x1 = 0.201 | 930.73 | 28
288.15 K, x1 = 0.2996 | 967.04 | 30.3
288.15 K, x1 = 0.3993 | 994.22 | 33.2
288.15 K, x1 = 0.4897 | 1013.42 | 35.8
288.15 K, x1 = 0.6017 | 1032.37 | 38.3
288.15 K, x1 = 0.693 | 1044.81 | 40.9
288.15 K, x1 = 0.7974 | 1056.62 | 44.5
288.15 K, x1 = 0.905 | 1066.7 | 50.3
288.15 K, x1 = 1 | 1074.97 | 56.3
293.15 K, x1 = 0.0999 | 873.42 | 25.1
293.15 K, x1 = 0.201 | 927.12 | 27.5
293.15 K, x1 = 0.2996 | 963.57 | 29.8
293.15 K, x1 = 0.3993 | 990.86 | 32.9
293.15 K, x1 = 0.4897 | 1010.13 | 35.5
293.15 K, x1 = 0.6017 | 1029.14 | 38
293.15 K, x1 = 0.693 | 1041.62 | 40.6
293.15 K, x1 = 0.7974 | 1053.47 | 44.2
293.15 K, x1 = 0.905 | 1063.59 | 50
293.15 K, x1 = 1 | 1071.9 | 56
298.15 K, x1 = 0.0999 | 869.54 | 24.6
298.15 K, x1 = 0.201 | 923.5 | 27.1
298.15 K, x1 = 0.2996 | 960.1 | 29.5
298.15 K, x1 = 0.3993 | 987.5 | 32.6
298.15 K, x1 = 0.4897 | 1006.84 | 35.2
298.15 K, x1 = 0.6017 | 1025.91 | 37.7
298.15 K, x1 = 0.693 | 1038.43 | 40.3
298.15 K, x1 = 0.7974 | 1050.31 | 43.9
298.15 K, x1 = 0.905 | 1060.48 | 49.7
298.15 K, x1 = 1 | 1068.83 | 55.7
303.15 K, x1 = 0.0999 | 865.66 | 24.2
303.15 K, x1 = 0.201 | 919.87 | 26.7
303.15 K, x1 = 0.2996 | 956.64 | 29.1
303.15 K, x1 = 0.3993 | 984.14 | 32.3
303.15 K, x1 = 0.4897 | 1003.56 | 34.9
303.15 K, x1 = 0.6017 | 1022.7 | 37.4
303.15 K, x1 = 0.693 | 1035.25 | 40
303.15 K, x1 = 0.7974 | 1047.18 | 43.6
303.15 K, x1 = 0.905 | 1057.35 | 49.4
303.15 K, x1 = 1 | 1065.76 | 55.5
308.15 K, x1 = 0.0999 | 861.77 | 23.8
308.15 K, x1 = 0.201 | 916.25 | 26.3
308.15 K, x1 = 0.2996 | 953.18 | 28.8
308.15 K, x1 = 0.3993 | 980.79 | 31.9
308.15 K, x1 = 0.4897 | 1000.29 | 34.5
308.15 K, x1 = 0.6017 | 1019.5 | 37
308.15 K, x1 = 0.693 | 1032.09 | 39.7
308.15 K, x1 = 0.7974 | 1044.05 | 43.3
308.15 K, x1 = 0.905 | 1054.26 | 49.1
308.15 K, x1 = 1 | 1062.7 | 55.2
313.15 K, x1 = 0.0999 | 857.88 | 23.4
313.15 K, x1 = 0.201 | 912.63 | 25.9
313.15 K, x1 = 0.2996 | 949.73 | 28.3
313.15 K, x1 = 0.3993 | 977.47 | 31.4
313.15 K, x1 = 0.4897 | 997.04 | 34.1
313.15 K, x1 = 0.6017 | 1016.31 | 36.7
313.15 K, x1 = 0.693 | 1028.95 | 39.4
313.15 K, x1 = 0.7974 | 1040.95 | 43.1
313.15 K, x1 = 0.905 | 1051.18 | 48.8
313.15 K, x1 = 1 | 1059.66 | 54.9
318.15 K, x1 = 0.0999 | 853.98 | 22.7
318.15 K, x1 = 0.201 | 909.01 | 25.4
318.15 K, x1 = 0.2996 | 946.29 | 27.9
318.15 K, x1 = 0.3993 | 974.15 | 31.1
318.15 K, x1 = 0.4897 | 993.79 | 33.8
318.15 K, x1 = 0.6017 | 1013.14 | 36.4
318.15 K, x1 = 0.693 | 1025.82 | 39
318.15 K, x1 = 0.7974 | 1037.86 | 42.7
318.15 K, x1 = 0.905 | 1048.12 | 48.6
318.15 K, x1 = 1 | 1056.64 | 54.5
